In this assay the test system is PKC mediated IL-2 production in human primary T cells. Put plainly: IL-2 ELISA, human primary T cell, anti CD3+CD28+ (whole cell functional assay for PKC mediated IL-2 production). The assay is classed as cell-based. In outline: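 Primary human T cells (PBMC-derived, expanded on plate-bound anti-CD3/CD28 with IL-2, then IL-2-washed) were pre-incubated 1 h at 37 °C with compound, then stimulated on 1 μg/ml anti-CD3 plus 5 μg/ml anti-CD28. After 24 h at 37 °C, secreted IL-2 was measured by ELISA; counter assay used 0.5 ng/ml PMA plus 0.1 μM ionomycin (final).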
Background: ELISA stands for enzyme-linked immunosorbent assay.

Setting [1] is: 24 h, human primary T cells stimulated with anti-CD3 + anti-CD28, IL-2 by ELISA, read-out: IC50 for blocking IL-2 production.
[2] abbreviates: human primary T cells stimulated with anti-CD3 + anti-CD28, 24 h, IL-2 by ELISA, 8 pt, read-out: IL2 ELISA, Human primary T cell, anti-CD3 + CD28, 8 pt (IC50).

Where two headings read alike, the source gives them in different places.

As to `Cc1nnnn1-c1cc(Nc2ncc(N(C)C)c(NC[C@@H]3CCCN4CCCC[C@H]34)n2)ccc1F` [Compound 88, N2-(4-fluoro-3-(5-methyl-1H-tetrazol-1-yl)phenyl)-N4-(((1S,9aR)-octahydro-1H-quinolizin-1-yl)methyl)-N5,N5-dimethylpyrimidine-2,4,5-triamine], the IC50 is under 30 µM under setting [1] and 12.7 µM under setting [2].

Take `Fc1cnc(Nc2ccc(N3CCOCC3)c(C(F)(F)F)c2)nc1NC[C@@H]1CCCN2CCCC[C@H]12` [Compound 19, 5-fluoro-N2-(3-(trifluoromethyl)-4-morpholinophenyl)-N4-(((1S,9aR)-octahydro-1H-quinolizin-1-yl)methyl)pyrimidine-2,4-diamine]: the IC50 reads like this: under setting [1], under 30 µM; under setting [2], 0.554 µM.

`N#Cc1cccc(Nc2ncc(Cl)c(NC[C@@H]3CCCN4CCCC[C@H]34)n2)c1` [Compound 39, 3-(4-(((1S,9aR)-octahydro-1H-quinolizin-1-yl)methylamino)-5-chloropyrimidin-2-ylamino)benzonitrile]: the IC50 under setting [1] is under 30 µM and the IC50 under setting [2] was 0.418 µM.

Regarding `CC1(C)Oc2cc(Nc3ncc(F)c(NC[C@@H]4CCCN5CCCC[C@H]45)n3)cnc2N(CC2CC2)C1=O` [Compound 31, 7-(4-(((1S,9aR)-octahydro-1H-quinolizin-1-yl)methylamino)-5-fluoropyrimidin-2-ylamino)-4-(cyclopropylmethyl)-2,2-dimethyl-2H-pyrido[3,2-b][1,4]oxazin-3(4H)-one], the IC50 runs as follows: under setting [1], under 30 µM; under setting [2], 0.359 µM.

Take `COc1cc(Nc2ncc(C#N)c(NC[C@@H]3CCCN4CCCC[C@H]34)n2)cc(OC)c1` [Compound 121, 4-(((1S,9aR)-octahydro-1H-quinolizin-1-yl)methylamino)-2-(3,5-dimethoxyphenylamino)pyrimidine-5-carbonitrile]: the IC50 runs as follows: under setting [1], under 30 µM; under setting [2], 0.141 µM.

`CC(O)COc1cc(F)c(Nc2ncc(C#N)c(NC[C@@H]3CCCN4CCCC[C@H]34)n2)cc1-n1nnn(C)c1=O` (stereo partly drawn) [Compound 136, 2-((2-fluoro-4-(2-hydroxypropoxy)-5-(4-methyl-5-oxo-4,5-dihydro-1H-tetrazol-1-yl)phenyl)amino)-4-((((1S,9aR)-octahydro-2H-quinolizin-1-yl)methyl)amino)pyrimidine-5-carbonitrile]: the IC50 runs as follows: under setting [1], under 30 µM; under setting [2], 0.176 µM.

As for `Cc1cnc(Nc2ccc(F)c(-n3nnnc3C)c2)nc1NC[C@@H]1CCCN2CCCC[C@H]12` [Compound 62, N2-(4-fluoro-3-(5-methyl-1H-tetrazol-1-yl)phenyl)-N4-(((1S,9aR)-octahydro-1H-quinolizin-1-yl)methyl)-5-methylpyrimidine-2,4-diamine], the IC50 was under 30 µM under setting [1] and 1.87 µM under setting [2].

As to `Cc1cnc(Nc2ccc3oc(=O)[nH]c3c2)nc1NC[C@@H]1CCCN2CCCC[C@H]12` [Compound 71, 5-(4-(((1S,9aR)-octahydro-1H-quinolizin-1-yl)methylamino)-5-methylpyrimidin-2-ylamino)benzo[d]oxazol-2(3H)-one], the IC50 was under 30 µM under setting [1] and 3.75 µM under setting [2].

For the compound `N#Cc1cc(Nc2nccc(NC[C@@H]3CCCN4CCCC[C@H]34)n2)ccc1C1CC1` [Compound 55, 5-(4-(((1S,9aR)-octahydro-1H-quinolizin-1-yl)methylamino)pyrimidin-2-ylamino)-2-cyclopropylbenzonitrile], the IC50 reads like this: under setting [1], under 30 µM; under setting [2], 0.607 µM.

In the case of `Cc1nnnn1-c1cc(Nc2ncc(C(F)(F)F)c(NC[C@@H]3CCCN4CCCC[C@H]34)n2)ccc1F` [Compound 103, N2-(4-fluoro-3-(5-methyl-1H-tetrazol-1-yl)phenyl)-5-(trifluoromethyl)-N4-(((1S,9aR)-octahydro-1H-quinolizin-1-yl)methyl)pyrimidine-2,4-diamine], the IC50 was under 30 µM under setting [1] and 26.6 µM under setting [2].

With `Cc1ccc(Nc2ncc(Cl)c(NC[C@@H]3CCCN4CCCC[C@H]34)n2)cc1C#N` [Compound 40, 5-(4-(((1S,9aR)-octahydro-1H-quinolizin-1-yl)methylamino)-5-chloropyrimidin-2-ylamino)-2-methylbenzonitrile], the IC50 reads like this: under setting [1], under 30 µM; under setting [2], 0.267 µM.

On to `COc1ccc(Nc2ncc(C)c(NC[C@@H]3CCCN4CCCC[C@H]34)n2)cc1-n1nnnc1C` [Compound 64, N4-(((1S,9aR)-octahydro-1H-quinolizin-1-yl)methyl)-N2-(4-methoxy-3-(5-methyl-1H-tetrazol-1-yl)phenyl)-5-methylpyrimidine-2,4-diamine], for which the concentration for half-maximal inhibition (IC50) is under 30 µM under setting [1] and 0.459 µM under setting [2].

Consider `COc1cc(Nc2ncc(N(C)C)c(NC[C@@H]3CCCN4CCCC[C@H]34)n2)cc(OC)c1` [Compound 96, N4-(((1S,9aR)-octahydro-1H-quinolizin-1-yl)methyl)-N2-(3,5-dimethoxyphenyl)-N5,N5-dimethylpyrimidine-2,4,5-triamine], for which the IC50 is, setting by setting: under setting [1], under 30 µM; under setting [2], 4.98 µM.

As for `N#Cc1cc(Nc2ncc(Cl)c(NC[C@@H]3CCCN4CCCC[C@H]34)n2)c(F)cc1C1CC1` [Compound 42, 5-(4-(((1S,9aR)-octahydro-1H-quinolizin-1-yl)methylamino)-5-chloropyrimidin-2-ylamino)-2-cyclopropyl-4-fluorobenzonitrile], the IC50 under setting [1] is under 30 µM and the IC50 under setting [2] is 0.348 µM.

As for `COc1ccc(Nc2nccc(NC[C@@H]3CCCN4CCCC[C@H]34)n2)cc1-n1nnnc1C` [Compound 51, N4-(((1S,9aR)-octahydro-1H-quinolizin-1-yl)methyl)-N2-(4-methoxy-3-(5-methyl-1H-tetrazol-1-yl)phenyl)pyrimidine-2,4-diamine], the IC50 is, setting by setting: under setting [1], under 30 µM; under setting [2], 0.531 µM.

With `COc1cnc(Nc2ccc(C)c(-n3cnnn3)c2)nc1NC[C@@H]1CCCN2CCCC[C@H]12` [Compound 73, N4-(((1S,9aR)-octahydro-1H-quinolizin-1-yl)methyl)-5-methoxy-N2-(4-methyl-3-(1H-tetrazol-1-yl)phenyl)pyrimidine-2,4-diamine], the IC50 reads like this: under setting [1], under 30 µM; under setting [2], 3.27 µM.

On to `COc1cnc(Nc2ccc(F)c(-n3nnnc3C)c2)nc1NC[C@@H]1CCCN2CCCC[C@H]12` [Compound 75, N2-(4-fluoro-3-(5-methyl-1H-tetrazol-1-yl)phenyl)-N4-(((1S,9aR)-octahydro-1H-quinolizin-1-yl)methyl)-5-methoxypyrimidine-2,4-diamine], for which the IC50 runs as follows: under setting [1], under 30 µM; under setting [2], 2.91 µM.

Turning to `Cc1cc(C2CC2)c(-n2nnn(C)c2=O)cc1Nc1ncc(F)c(NC[C@@H]2CCCN3CCCC[C@H]23)n1` [Compound 15, 1-(5-(4-(((1S,9aR)-octahydro-1H-quinolizin-1-yl)methylamino)-5-fluoropyrimidin-2-ylamino)-2-cyclopropyl-4-methylphenyl)-4-methyl-1H-tetrazol-5(4H)-one], the IC50 reads like this: under setting [1], under 30 µM; under setting [2], 10.7 µM.

With `Cc1ccc(Nc2ncc(F)c(NC[C@@H]3CCCN4CCCC[C@H]34)n2)cc1-n1cnnn1` [Compound 4, 5-fluoro-N4-(((1S,9aR)-octahydro-1H-quinolizin-1-yl)methyl)-N2-(4-methyl-3-(1H-tetrazol-1-yl)phenyl)pyrimidine-2,4-diamine], the concentration for half-maximal inhibition (IC50) is, setting by setting: under setting [1], under 30 µM; under setting [2], 0.142 µM.

In the case of `COc1cc(Nc2ncc(OC)c(NC[C@@H]3CCCN4CCCC[C@H]34)n2)cc(OC)c1` [Compound 83, N4-(((1S,9aR)-octahydro-1H-quinolizin-1-yl)methyl)-5-methoxy-N2-(3,5-dimethoxyphenyl)pyrimidine-2,4-diamine], the IC50 under setting [1] is under 30 µM and the IC50 under setting [2] was found to be 3.87 µM.

As for `COc1cc(Nc2ncc(Cl)c(NC[C@@H]3CCCN4CCCC[C@H]34)n2)cc(-n2nnnc2C)c1` [Compound 38, 5-chloro-N4-(((1S,9aR)-octahydro-1H-quinolizin-1-yl)methyl)-N2-(3-methoxy-5-(5-methyl-1H-tetrazol-1-yl)phenyl)pyrimidine-2,4-diamine], the IC50 is, setting by setting: under setting [1], under 30 µM; under setting [2], 0.126 µM.

Consider `Fc1cc(C2CC2)c(-n2cnnn2)cc1Nc1nccc(NC[C@@H]2CCCN3CCCC[C@H]23)n1` [Compound 46, N2-(4-cyclopropyl-2-fluoro-5-(1H-tetrazol-1-yl)phenyl)-N4-(((1S,9aR)-octahydro-1H-quinolizin-1-yl)methyl)pyrimidine-2,4-diamine], for which the IC50 runs as follows: under setting [1], under 30 µM; under setting [2], 1.12 µM.

`Fc1cc(C2CC2)c(-n2cnnn2)cc1Nc1ncc(C(F)(F)F)c(NC[C@@H]2CCCN3CCCC[C@H]23)n1` [Compound 100, N2-(4-cyclopropyl-2-fluoro-5-(1H-tetrazol-1-yl)phenyl)-5-(trifluoromethyl)-N4-(((1S,9aR)-octahydro-1H-quinolizin-1-yl)methyl)pyrimidine-2,4-diamine]: the IC50 is under 30 µM under setting [1] and 4.21 µM under setting [2].

On to `C[C@@H](O)COc1cc(F)c(Nc2ncc(C#N)c(NC[C@@H]3CCCN4CCCC[C@H]34)n2)cc1-n1nnn(C)c1=O` [Compound 143, 2-((2-fluoro-4-((R)-2-hydroxypropoxy)-5-(4-methyl-5-oxo-4,5-dihydro-1H-tetrazol-1-yl)phenyl)amino)-4-((((1S,9aR)-octahydro-2H-quinolizin-1-yl)methyl)amino)pyrimidine-5-carbonitrile], for which the half-maximal inhibitory concentration (IC50) reads like this: under setting [1], under 30 µM; under setting [2], 0.147 µM.

Regarding `N#Cc1cnc(Nc2ccc(F)c(-n3nnnc3C3CC3)c2)nc1NC[C@@H]1CCCN2CCCC[C@H]12` [Compound 122, 4-(((1S,9aR)-octahydro-1H-quinolizin-1-yl)methylamino)-2-(3-(5-cyclopropyl-1H-tetrazol-1-yl)-4-fluorophenylamino)pyrimidine-5-carbonitrile], the IC50 is, setting by setting: under setting [1], under 30 µM; under setting [2], 0.0206 µM.

Usually IC50 stands for the midpoint of a concentration-inhibition curve.

(Values after patent publication US9913843B2, “Protein kinase C inhibitors and uses thereof” (Rigel Pharmaceuticals, Inc., priority 2012, dated 2018).)
